Results from patent publication US8343959B2, “N-phenyl-(piperazinyl or homopiperazinyl)-benzenesulfonamide or benzenesulfonyl-phenyl-(piperazine or homopiperazine) compounds suitable for treating disorders that respond to modulation of the serotonin 5-HT6 receptor” (Abbott GmbH & Co. KG, priority 2009, dated 2013).
Structures can show the parent of a compound that is named as a salt.

Molecular target: T1, h-5-HT6 receptor (Homo sapiens, UniProt P50406)
T1 construct: expressed in transfected cells
T1 sequence (P50406 whole entry): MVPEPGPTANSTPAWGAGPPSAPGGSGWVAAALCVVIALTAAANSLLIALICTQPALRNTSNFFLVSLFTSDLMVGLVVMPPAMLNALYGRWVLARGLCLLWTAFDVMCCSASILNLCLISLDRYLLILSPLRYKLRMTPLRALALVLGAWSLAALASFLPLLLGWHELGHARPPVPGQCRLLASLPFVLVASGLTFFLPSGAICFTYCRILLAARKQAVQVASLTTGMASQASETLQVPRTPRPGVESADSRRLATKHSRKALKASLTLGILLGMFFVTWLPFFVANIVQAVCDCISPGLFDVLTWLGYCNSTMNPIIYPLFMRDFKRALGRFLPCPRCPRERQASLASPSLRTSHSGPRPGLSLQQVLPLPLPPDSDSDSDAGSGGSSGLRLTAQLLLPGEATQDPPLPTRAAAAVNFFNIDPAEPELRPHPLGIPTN
Assay: 5-HT6 receptor binding assay (displacement of [3H]-LSD)
Conditions: membranes of HEK293 cells expressing h-5-HT6 receptor, 1 nM [3H]-LSD; read-out: Ki (5HT6)
Method: Displacement of Radioligands Binding to The Following Cloned Human Receptors
Cells from stable clonal cell lines expressing the corresponding receptor (5-HT6, α1-adrenergic, dopamine D2 or histamine H1 receptors) were washed with PBS (w/o Ca^++, Mg^++) and harvested in PBS with 0.02% EDTA. The cells were collected by centrifugation at 500 g for 10 min. at 4° C., washed with PBS and centrifuged (500 g, 10 min. 4° C.). The pellets were stored at −80° C. until use. For membrane preparation, the thawed cell pellet was resuspended in ice-cold sucrose buffer (0.25 M sucrose, 10 mM Hepes (pH 7.4), 1 mM Phenylmethylsulfonyl fluoride (PMSF) in DMSO, 5 μg/ml Pepstatin-A, 3 mM EDTA, 0.025% Bacitracin) and homogenized with a Branson Sonifier W-250 (Settings: Timer 4; Output Control 3; Duty Cycle constant; 2 to 3 cycles). Cell disruption was checked with the aid of a microscope. Remaining unbroken cells were pelleted at 1.000 g for 10 min. at 4° C. The sucrose buffer supernatant was then centrifuged at 60.000 g for 1 h at 4° C. (Beckman Ultrazentrifuge XL 80). The pellet was resuspended in 30 ml ice-cold Tris buffer (20 mM TRIS (pH 7.4), 5 μg/ml Pepstatin A, 0.1 mM PMSF, 3 mM EDTA) by pipetting through a 10 ml serological pipet and centrifuged for 1 h at 4° C. at 60.000 g. A final resuspension was performed in a small volume of ice-cold Tris buffer (see above) by pressing through a serological pipet followed by ultrasonic treatment with a Branson Sonifier W-250 (Settings: Timer 1; Output Control 3; Duty Cycle constant; 1 cycle). Protein concentration was determined (BCA-Kit; Pierce) and aliquots stored at −80° C. or in liquid nitrogen for long-term storage.
All receptor binding experiments were carried out in the corresponding assay buffer in a total volume of 200 μl in the presence of various concentrations of test compound (10^−5 M to 10^−9 M, tenfold serial dilution, duplicate determinations). The assays were terminated by filtration on polyethylenimine (PEI 0.1% or 0.3%) presoaked Packard Unifilter Plates (GF/C or GF/B) with a Tomtec Machin U 96 well-plate harvester. After the plates had been dried for 2 h at 55° C. in a drying chamber scintillation cocktail (BetaPlate Scint; PerkinElmer) was added. Radioactivity was measured in a Microbeta Trilux two hours after the addition of the scintillation mixture. Data derived from liquid scintillation counting were analysed by iterative non-linear regression analysis with the use of the Statistical Analysis System (SAS): a program similar to “LIGAND” as described by Munson and Rodbard (Analytical Biochemistry 107, 220-239 (1980).
HEK293 cells stably expressing the h-5-HT6 receptor (NCBI Reference Sequence XM 001435) were cultured in RPMI1640 medium supplemented with 25 mM HEPES, 10% fetal calf serum and 1-2 mM glutamine. The membrane preparation was performed as described in section 1. […] Non-specific binding was defined with 1 μM methiothepin. The binding reaction was carried out for 3.5 h at room temperature. During the incubation, the plates were shaken on a plate shaker at 100 rpm and terminated by filtration on Packard Unifilter GF/C (0.1% PEI) plates, followed by 2 wash cycles with ice-cold 50 mM Tris-HCl, 5 mM CaCl2.
Data derived from liquid scintillation counting were analyzed by iterative non-linear regression analysis with the use of the Statistical Analysis System (SAS): a program similar to “LIGAND” as described by Munson and Rodbard (Anal. Biochem. 1980, 107, 220-239). Fitting was performed according to formulae described by Feldman (Anal. Biochem. 1972, 48, 317-338). IC50, nH and Ki values were expressed as geometrical mean.

Row | Ki [nM] | SMILES
1 | < 10 | COc1ccc(S(=O)(=O)Nc2cc(C)ccc2OC(F)F)cc1N1CCN(C)CC1 [Example 67, N-(2-Difluoromethoxy-5-methyl-phenyl)-4-methoxy-3-(4-methyl-piperazin-1-yl)-benzenesulfonamide hydrochloride]
2 | < 10 | O=S(=O)(Nc1cccc(OC(F)F)c1)c1cccc(N2CCNCC2)c1 [Example 68, N-(3-Difluoromethoxy-phenyl)-3-piperazin-1-yl-benzenesulfonamide hydrochloride]
3 | < 10 | COc1ccc(S(=O)(=O)Nc2ccc(F)cc2OC(F)F)cc1N1CCN(C)CC1 [Example 69, N-(2-Difluoromethoxy-4-fluoro-phenyl)-4-methoxy-3-(4-methyl-piperazin-1-yl)-benzenesulfonamide hydrochloride]
4 | < 10 | COc1ccc(S(=O)(=O)Nc2ccc(C)cc2OC(F)F)cc1N1CCN(C)CC1 [Example 70, N-(2-Difluoromethoxy-4-methyl-phenyl)-4-methoxy-3-(4-methyl-piperazin-1-yl)-benzenesulfonamide hydrochloride]
5 | < 10 | Cc1ccc(S(=O)(=O)Nc2cc(Cl)ccc2OC(F)F)cc1N1CCNCC1 [Example 71, N-(5-Chloro-2-difluoromethoxy-phenyl)-4-methyl-3-piperazin-1-yl-benzenesulfonamide hydrochloride]
6 | < 10 | COc1ccc(S(=O)(=O)Nc2cc(C)ccc2OC(F)F)cc1N1CCNCC1 [Example 72, N-(2-Difluoromethoxy-5-methyl-phenyl)-4-methoxy-3-piperazin-1-yl-benzenesulfonamide hydrochloride]
7 | < 10 | COc1ccc(S(=O)(=O)Nc2ccc(C)cc2OC(F)F)cc1N1CCNCC1 [Example 73, N-(2-Difluoromethoxy-4-methyl-phenyl)-4-methoxy-3-piperazin-1-yl-benzenesulfonamide hydrochloride]
8 | < 50 | Cc1ccc(S(=O)(=O)Nc2ccc(F)cc2OC(F)F)cc1N1CCNCC1 [Example 74, N-(2-Difluoromethoxy-4-fluoro-phenyl)-4-methyl-3-piperazin-1-yl-benzenesulfonamide hydrochloride]
9 | < 50 | Cc1ccc(NS(=O)(=O)c2ccc(C)c(N3CCN(C)CC3)c2)cc1OC(F)F [Example 75, N-(3-Difluoromethoxy-4-methyl-phenyl)-4-methyl-3-(4-methyl-piperazin-1-yl)-benzenesulfonamide hydrochloride]
10 | < 50 | COc1cc(NS(=O)(=O)c2ccc(C)c(N3CCNCC3)c2)ccc1OC(F)F [Example 76, N-(4-Difluoromethoxy-3-methoxy-phenyl)-4-methyl-3-piperazin-1-yl-benzenesulfonamide]
11 | < 50 | COc1ccc(OC(F)F)cc1NS(=O)(=O)c1ccc(C)c(N2CCN(C)CC2)c1 [Example 77, N-(5-Difluoromethoxy-2-methoxy-phenyl)-4-methyl-3-(4-methyl-piperazin-1-yl)-benzenesulfonamide trifluoroacetate]
12 | < 50 | COc1ccc(OC(F)F)c(NS(=O)(=O)c2ccc(C)c(N3CCN(C)CC3)c2)c1 [Example 78, N-(2-Difluoromethoxy-5-methoxy-phenyl)-4-methyl-3-(4-methyl-piperazin-1-yl)-benzenesulfonamide trifluoroacetate]
13 | < 50 | Cc1ccc(S(=O)(=O)Nc2ccc(F)cc2OC(F)F)cc1N1CCN(C)CC1 [Example 79, N-(2-Difluoromethoxy-4-fluoro-phenyl)-4-methyl-3-(4-methyl-piperazin-1-yl)-benzenesulfonamide trifluoroacetate]
14 | < 50 | COc1ccc(OC(F)F)cc1NS(=O)(=O)c1ccc(C)c(N2CCNCC2)c1 [Example 80, N-(5-Difluoromethoxy-2-methoxy-phenyl)-4-methyl-3-piperazin-1-yl-benzenesulfonamide trifluoroacetate]
15 | < 50 | COc1ccc(OC(F)F)c(NS(=O)(=O)c2ccc(C)c(N3CCNCC3)c2)c1 [Example 81, N-(2-Difluoromethoxy-5-methoxy-phenyl)-4-methyl-3-piperazin-1-yl-benzenesulfonamide hydrochloride]
16 | < 10 | COc1ccc(S(=O)(=O)Nc2ccc(F)cc2OC(F)F)cc1N1CCNCC1 [Example 82, N-(2-Difluoromethoxy-4-fluoro-phenyl)-4-methoxy-3-piperazin-1-yl-benzenesulfonamide hydrochloride]
17 | < 10 | COc1ccc(S(=O)(=O)Nc2ccc3c(c2)OC(F)(F)O3)cc1N1CCNCC1 [Example 83, N-(2,2-Difluoro-benzo[1,3]dioxol-5-yl)-4-methoxy-3-piperazin-1-yl-benzenesulfonamide hydrochloride]
18 | < 50 | Cc1ccc(S(=O)(=O)Nc2ccc3c(c2)OC(F)(F)O3)cc1N1CCNCC1 [Example 84, N-(2,2-Difluoro-benzo[1,3]dioxol-5-yl)-4-methyl-3-piperazin-1-yl-benzenesulfonamide hydrochloride]
19 | < 500 | COc1ccc(NS(=O)(=O)c2ccc(C)c(N3CCNCC3)c2)cc1OC(F)F [Example 85, N-(3-Difluoromethoxy-4-methoxy-phenyl)-4-methyl-3-piperazin-1-yl-benzenesulfonamide hydrochloride]
20 | < 500 | COc1ccc(NS(=O)(=O)c2ccc(C)c(N3CCN(C)CC3)c2)cc1OC(F)F [Example 86, N-(3-Difluoromethoxy-4-methyoxy-phenyl)-4-methyl-3-(4-methyl-piperazin-1-yl)-benzenesulfonamide hydrochloride]
21 | < 50 | Cc1cc(NS(=O)(=O)c2ccc(C)c(N3CCN(C)CC3)c2)ccc1OC(F)F [Example 87, N-(4-Difluoromethoxy-3-methyl-phenyl)-4-methyl-3-(4-methyl-piperazin-1-yl)-benzenesulfonamide hydrochloride]
22 | < 500 | Cc1ccc(S(=O)(=O)Nc2ccc(OC(F)F)cc2)cc1N1CCN(C)CC1 [Example 88, N-(4-Difluoromethoxy-phenyl)-4-methyl-3-(4-methyl-piperazin-1-yl)-benzenesulfonamide hydrochloride]
23 | < 10 | COc1ccc(S(=O)(=O)Nc2ccc(C)c(OC(F)F)c2)cc1N1CCN(C)CC1 [Example 89, N-(3-Difluoromethoxy-4-methyl-phenyl)-4-methoxy-3-(4-methyl-piperazin-1-yl)-benzenesulfonamide hydrochloride]
24 | < 50 | COc1cc(NS(=O)(=O)c2ccc(OC)c(N3CCN(C)CC3)c2)ccc1OC(F)F [Example 90, N-(4-Difluoromethoxy-3-methoxy-phenyl)-4-methoxy-3-(4-methyl-piperazin-1-yl)-benzenesulfonamide]
25 | < 50 | Cc1ccc(NS(=O)(=O)c2ccc(C)c(N3CCN(C)CC3)c2)c(OC(F)F)c1 [Example 91, N-(2-Difluoromethoxy-4-methyl-phenyl)-4-methyl-3-(4-methyl-piperazin-1-yl)-benzenesulfonamide hydrochloride]
26 | < 10 | Cc1ccc(OC(F)F)c(NS(=O)(=O)c2ccc(C)c(N3CCN(C)CC3)c2)c1 [Example 92, N-(2-Difluoromethoxy-5-methyl-phenyl)-4-methyl-3-(4-methyl-piperazin-1-yl)-benzenesulfonamide hydrochloride]
27 | < 10 | COc1cc(NS(=O)(=O)c2ccc(OC)c(N3CCNCC3)c2)ccc1OC(F)F [Example 93, N-(4-Difluoromethoxy-3-methoxy-phenyl)-4-methoxy-3-piperazin-1-yl-benzenesulfonamide hydrochloride]
28 | < 10 | Cc1ccc(S(=O)(=O)Nc2cccc(OC(F)F)c2)cc1N1CCN(C)CC1 [Example 94, N-(3-Difluoromethoxy-phenyl)-4-methyl-3-(4-methyl-piperazin-1-yl)-benzenesulfonamide hydrochloride]
